# Results published in patent US20090118350A1, “Biomarkers for Identifying Efficacy of Tegaserod in Patients with Chronic Constipation” (priority 2005, published 2009).
# Tested on: patients with chronic constipation
# Experiment: Clinical trial, primary efficacy: mean increase of 1 or more CSBM/week over baseline after 4 weeks of treatment (responders), by subgroup and genotype
# Type: in vivo, human
# Conditions: 6-mg bid vs placebo, 4 weeks
# Method: Introduction. A clinical trial was performed to evaluate the efficacy of tegaserod (Zelmac®/Zelnorm™) at 6 mg bid (12 mg/day) or 2 mg bid (4 mg/day) vs. placebo by measuring the number of complete spontaneous bowel movements (CSBM) during the first 4 weeks of treatment. Secondary objectives included evaluating the number of CSBM during the entire 12-week treatment period, bowel habits, laxative use, and safety and tolerability issues. The clinical trial design consisted of a 2-week baseline period without medication, a 12-week, randomized, double-blind, placebo-controlled treatment period, and a 4-week withdrawal period without study medication. As part of the clinical trial, DNA was collected from patients at screening for pharmacogenetic analysis to evaluate genetic polymorphisms relating to drug targets and disease aetiology.
# Samples. A total 1348 patients were randomized as the intent-to-treat (ITT) population. Blood samples from these patients were collected at the time of patient screening and DNA was extracted using the PUREGENE™ DNA Isolation Kit (D-50K). Of these, samples from 738 randomized patients had good quality genotype data for at least half of the 55 SNPs evaluated.
# Clinical assessments. […] The primary efficacy endpoint evaluated was the increase of 1 or more CSBM/week over baseline after 4 weeks of treatment. A secondary endpoint evaluated in this genotyping study was RESP12, the increase of 1 of more CSBM/week over baseline after 12 weeks of treatment. Patients were classified as responders if they met these criteria and had completed at least 7 days of treatment. Additional secondary efficacy assessments were evaluated based on the weekly diary assessments, such as bothersome constipation, bothersome abdominal pain, and satisfaction with bowel habits at the end of the 12-week treatment period (using the baseline value as a co-variant for analysis).
# Genotyping. A total of 61 polymorphisms in 23 candidate genes were selected for analysis. Genotyping was performed using the TaqMan® technology for most of the assays, while a few were performed in-house using the Third Wave Technologies Invader Assay technique (see TABLE 2 for assay IDs for all evaluated SNPs). Of the 61 SNPs genotyped, 55 yielded good quality, polymorphic genotypes for use in further evaluation.
# Statistical analysis. Statistical analysis was performed using SAS version 8.2 (The SAS Institute, Cary, N.C., USA). Analysis methods included Fisher's Exact tests, analysis of Covariance (ANCOVA), logistic regression, and Mantel-Haenzel tests to determine odds ratios and 95% confidence intervals, with significance established at p<0.05. Calculation of linkage disequilibrium was performed using the GOLD (graphical overview of linkage disequilibrium) method described by Abecasis & Cookson, Bioinformatics 16: 182-3 (2000).
# Demographic comparisons. TABLE 3 presents the demographic breakdown of the patients in the overall clinical study and those included in this genotype analysis. Distributions were similar between the genotype population and the total patient population. […] Based on these findings, it was decided to limit analysis to the Caucasian population, which accounted for nearly 90% of all patients, to prevent a confounding effect of race on subsequent genotype analyses. Furthermore, the analysis was also limited to those intent-to-treat patients that were treated with tegaserod or placebo for at least 7 days (total of 635 patients).
# Comparison of overall response rates. TABLE 4 presents the overall response for the primary efficacy endpoint (a mean increase in 1 or more CSBM/week over baseline after 4 weeks) for tegaserod 6-mg bid compared with placebo for both the overall patient population and the subgroup of patients for which we had genotype data (all races and Caucasians only). […]
structure (smiles),measurement,setting,value
"[H]/N=C(/NCCCCC)N/N=C/c1c[nH]c2ccc(OC)cc12 [tegaserod, Tegaserod]",Odds Ratio,"All Caucasians (ITT, >=7 days), Age <65, M + F",2.7
same,Odds Ratio,"All Caucasians (ITT, >=7 days), Age >=65, M + F",1.2
same,Odds Ratio,"All Caucasians (ITT, >=7 days), Age All, Female",2.6
same,Odds Ratio,"All Caucasians (ITT, >=7 days), Age All, M + F",2.5
same,Odds Ratio,"All Caucasians (ITT, >=7 days), Age All, Male",1.8
same,Odds Ratio,"All genotyped (ITT, >=7 days), Age <65, M + F",2.8
same,Odds Ratio,"All genotyped (ITT, >=7 days), Age >=65, M + F",2.4
same,Odds Ratio,"All genotyped (ITT, >=7 days), Age All, Female",2.7
same,Odds Ratio,"All genotyped (ITT, >=7 days), Age All, M + F",2.7
same,Odds Ratio,"All genotyped (ITT, >=7 days), Age All, Male",2.5
same,Odds Ratio,"All patients (ITT, >=7 days), Age <65, M + F",2.5
same,Odds Ratio,"All patients (ITT, >=7 days), Age >=65, M + F",1.4
same,Odds Ratio,"All patients (ITT, >=7 days), Age All, Female",2.4
same,Odds Ratio,"All patients (ITT, >=7 days), Age All, M + F",2.3
same,Odds Ratio,"All patients (ITT, >=7 days), Age All, Male",1.9
same,Odds Ratio,"Caucasians genotyped (ITT, >=7 days), Age <65, M + F, all genotypes",2.8
same,Odds Ratio,"Caucasians genotyped (ITT, >=7 days), Age >=65, M + F, all genotypes",2.1
same,Odds Ratio,"Caucasians genotyped (ITT, >=7 days), Age All, Female, all genotypes",2.7
same,Odds Ratio,"Caucasians genotyped (ITT, >=7 days), Age All, M + F, all genotypes",2.6
same,Odds Ratio,"Caucasians genotyped (ITT, >=7 days), Age All, Male, all genotypes",2.5
same,Odds Ratio,"ITT Caucasians >=7 days, 0 of 14 SNPs",1.1
same,Odds Ratio,"ITT Caucasians >=7 days, >=1 of 14 SNPs",4.1
same,Odds Ratio,"ITT Caucasians >=7 days, AQP3 (PG ID 1838) genotype CC",2.4
same,Odds Ratio,"ITT Caucasians >=7 days, AQP3 (PG ID 1838) genotype CG",2.6
same,Odds Ratio,"ITT Caucasians >=7 days, AQP3 (PG ID 1838) genotype GG",11.3
same,Odds Ratio,"ITT Caucasians >=7 days, Female (All ages), 0 of the 12 SNPs",1.5
same,Odds Ratio,"ITT Caucasians >=7 days, Female (All ages), 1-12 of the 12 SNPs",4.7
same,Odds Ratio,"ITT Caucasians >=7 days, HTR3B (PG ID 3755) genotype AA",2.7
same,Odds Ratio,"ITT Caucasians >=7 days, HTR3B (PG ID 3755) genotype AC",2.0
same,Odds Ratio,"ITT Caucasians >=7 days, HTR3B (PG ID 3755) genotype CC",8.0
same,Odds Ratio,"ITT Caucasians >=7 days, HTR4 (PG ID 1746) genotype CC",2.7
same,Odds Ratio,"ITT Caucasians >=7 days, HTR4 (PG ID 1746) genotype CT",2.2
same,Odds Ratio,"ITT Caucasians >=7 days, HTR4 (PG ID 1746) genotype TT",8.4
same,Odds Ratio,"ITT Caucasians >=7 days, HTR4 (PG ID 3743) genotype AA",3.0
same,Odds Ratio,"ITT Caucasians >=7 days, HTR4 (PG ID 3743) genotype AC",2.8
same,Odds Ratio,"ITT Caucasians >=7 days, HTR4 (PG ID 3743) genotype CC",14.0
same,Odds Ratio,"ITT Caucasians >=7 days, HTR4 (PG ID 3747) genotype AA",3.0
same,Odds Ratio,"ITT Caucasians >=7 days, HTR4 (PG ID 3747) genotype AT",2.2
same,Odds Ratio,"ITT Caucasians >=7 days, HTR4 (PG ID 3747) genotype TT",5.8
same,Odds Ratio,"ITT Caucasians >=7 days, HTR4 (PG ID 3753) genotype CC",2.7
same,Odds Ratio,"ITT Caucasians >=7 days, HTR4 (PG ID 3753) genotype CT",2.1
same,Odds Ratio,"ITT Caucasians >=7 days, HTR4 (PG ID 3753) genotype TT",7.0
same,Odds Ratio,"ITT Caucasians >=7 days, HTR4 (PG ID 3754) genotype AA",3.2
same,Odds Ratio,"ITT Caucasians >=7 days, HTR4 (PG ID 3754) genotype AT",1.9
same,Odds Ratio,"ITT Caucasians >=7 days, HTR4 (PG ID 3754) genotype TT",4.9
same,Odds Ratio,"ITT Caucasians >=7 days, HTR4 (PG ID 3756) genotype AA",2.8
same,Odds Ratio,"ITT Caucasians >=7 days, HTR4 (PG ID 3756) genotype AC",2.0
same,Odds Ratio,"ITT Caucasians >=7 days, HTR4 (PG ID 3756) genotype CC",8.1
same,Odds Ratio,"ITT Caucasians >=7 days, M + F (<65), 0 of the 12 SNPs",1.5
same,Odds Ratio,"ITT Caucasians >=7 days, M + F (<65), 1-12 of the 12 SNPs",5.3
same,Odds Ratio,"ITT Caucasians >=7 days, M + F (>=65), 0 of the 12 SNPs",0.3
same,Odds Ratio,"ITT Caucasians >=7 days, M + F (>=65), 1-12 of the 12 SNPs",7.0
same,Odds Ratio,"ITT Caucasians >=7 days, M + F (All ages), 0 of the 12 high responder SNPs",1.3
same,Odds Ratio,"ITT Caucasians >=7 days, M + F (All ages), 1-12 of the 12 high responder SNPs",5.4
same,Odds Ratio,"ITT Caucasians >=7 days, MLN (PG ID 1783) genotype CC",2.5
same,Odds Ratio,"ITT Caucasians >=7 days, MLN (PG ID 1783) genotype CT",2.0
same,Odds Ratio,"ITT Caucasians >=7 days, MLN (PG ID 1783) genotype TT",7.2
same,Odds Ratio,"ITT Caucasians >=7 days, Male (All ages), 0 of the 12 SNPs",0.3
same,Odds Ratio,"ITT Caucasians >=7 days, Male (All ages), 1-12 of the 12 SNPs",22.5
same,Odds Ratio,"ITT Caucasians >=7 days, SCNN1A (PG ID 3806) genotype GG",5.0
same,Odds Ratio,"ITT Caucasians >=7 days, SCNN1A (PG ID 3806) genotype GT",2.5
same,Odds Ratio,"ITT Caucasians >=7 days, SCNN1A (PG ID 3806) genotype TT",1.9
same,Odds Ratio,"ITT Caucasians >=7 days, SLC12A2 (PG ID 1842) genotype AA",12.0
same,Odds Ratio,"ITT Caucasians >=7 days, SLC12A2 (PG ID 1842) genotype AG",1.1
same,Odds Ratio,"ITT Caucasians >=7 days, SLC12A2 (PG ID 1842) genotype GG",2.9
same,Odds Ratio,"ITT Caucasians >=7 days, SLC12A2 (PG ID 3801) genotype CC",17.0
same,Odds Ratio,"ITT Caucasians >=7 days, SLC12A2 (PG ID 3801) genotype CT",0.8
same,Odds Ratio,"ITT Caucasians >=7 days, SLC12A2 (PG ID 3801) genotype TT",3.8
same,Odds Ratio,"ITT Caucasians >=7 days, TPH1 (PG ID 1756) genotype GG",5.4
same,Odds Ratio,"ITT Caucasians >=7 days, TPH1 (PG ID 1756) genotype GT",2.4
same,Odds Ratio,"ITT Caucasians >=7 days, TPH1 (PG ID 1756) genotype TT",1.5
same,Odds Ratio,"ITT Caucasians >=7 days, TPH1 (PG ID 3784) genotype CC",1.6
same,Odds Ratio,"ITT Caucasians >=7 days, TPH1 (PG ID 3784) genotype CT",2.4
same,Odds Ratio,"ITT Caucasians >=7 days, TPH1 (PG ID 3784) genotype TT",5.5
same,Odds Ratio,high responder genotypes of the twelve SNPs in six genes,≥ 5
